Experimental data as given in patent publication US12458647B2, “Macrocyclic derivative and use thereof” (Guangzhou Joyo Pharmatech Co., Ltd., priority 2022, dated 2025).

Test system: AsPC-1 cells
Test: In vitro AsPC-1 cell proliferation experiment (10 days, 3D CellTiter-Glo)
Format: cell-based
Conditions: 10 days culture
Experimental: RPMI1640 medium, penicillin/streptomycin antibiotics were purchased from Gibco, and fetal bovine serum was purchased from Hyclone. 3D CellTiter-Glo (cell viability chemiluminescent detection reagent) reagent was purchased from Promega. The AsPC-1 cell line was purchased from ATCC, Envision multilabel plate reader (PerkinElmer).
AsPC-1 cells were seeded in an ultra-low adsorption 96-well U-shaped plate, with 80 μL of cell suspension per well, containing 1,000 AsPC-1 cells. The plate was incubated overnight in a carbon dioxide incubator.
The test compound was diluted by 5-fold to 8 concentrations with a pipette, i.e., from 2 mM to 25.6 nM and replicate wells were set up for the experiment. 78 μL of culture medium was added to the intermediate plate, then 2 μL of the gradient diluted compound was transferred into each well of the intermediate plate according to the corresponding position. After mixing well, 20 μL of each well was transferred to the cell plate. […] Another cell plate was prepared, and the signal value was read as the maximum value (the maximum value in the following equation) on the day of dosing for data analysis.
100 μL of cell viability chemiluminescent detection reagent was added to the cell plate and incubated at room temperature for 30 minutes to stabilize the luminescence signal. A multilabel plate reader was used for reading. […]

Question: `CCn1c(-c2cc(N3CCN(C)CC3)cnc2C(C)OC)c2c3cc(ccc31)-c1csc(n1)CC(NC(=O)C1C(C)C1C)C(=O)N1NC(C(=O)OCC(C)(C)C2)C2CC1C2` (single isomer, unassigned) [Compound 6A] was tested. Which IC50 did it give?
Answer: 1 nM
